From publication PMC4016139, “Inhibition of K^+ Transport through Na^+, K^+-ATPase by Capsazepine: Role of Membrane Span 10 of the α-Subunit in the Modulation of Ion Gating” (PLoS ONE, 2014)

Tested on: T1, Na+,K+-ATPase of adult rat ventricular myocytes
T1 construct: gene Atp1a1; native pump in isolated adult male ventricular myocytes, whole-cell patch clamp; with Sodium/potassium-transporting ATPase subunit beta-1
Experiment: whole-cell ruptured-patch pump current (K+-dependent Ip)
Type: cell-based
Details: 10 min perfusion, 5 mM external K+, 140 mM NaCl, pH 7.2, 35 °C

SMILES: Oc1cc2c(cc1O)CN(C(=S)NCCc1ccc(Cl)cc1)CCC2 [Capsazepine]
- % inhibition at 30 μM: 85%
